This is an account of results in ChEMBL document CHEMBL1144542, “Design of endoperoxides with anti-Candida activity” (Bioorg Med Chem, 2007).

For one data set, the system named is Candida albicans. Description: Growth inhibition of Candida albicans JRW#5. It is filed as functional, organism-based.
Another data set concerns Erythrocyte. The data set is described as follows: Hemolytic activity in human erythrocytes at 1 mM. The data set is classed as functional.
The test system of data set [1] is CHO. Description: Cytotoxicity against CHO cells at 1.0 mM after 3 days relative to control. It is filed as cell-based, Cricetulus griseus. To be noted: chinese hamster, 72 h, 1000 µM.
Data set [2] concerns CHO. The data set is described as follows: Cytotoxicity against CHO cells at 0.1 mM after 3 days relative to control. The data set is classed as cell-based, Cricetulus griseus. The conditions noted are these: chinese hamster, 72 h, 100 µM.

For `C1CCC([C@@]23COOC[C@@H]2O3)CC1`, half-maximal inhibition in the data set with Candida albicans (IC50) was put at 500 µM.
`C[C@H]1OO[C@@H](COC(=O)C23CC4CC(CC(C4)C2)C3)[C@H]2O[C@H]21` yielded an IC50 in the data set on Candida albicans of 125 µM.
In the data set with Candida albicans, `CCCCCCC[C@@H]1C=C[C@H](CCC)OO1` yielded an IC50 of 250 µM. Besides, in the data set with Erythrocyte, the Activity was found to be 86%.
On to `CCCCCCC[C@H]1OO[C@@H](CCC)[C@H]2O[C@H]21`, for which the IC50 with Candida albicans came out at 500 µM. Moreover, in the data set with Erythrocyte, the Activity stood at 25%.
As to `C1C2CC3CC1CC([C@@H]1OO[C@H](C45CC6CC(CC(C6)C4)C5)[C@H]4O[C@H]41)(C2)C3`, the IC50 in the data set with Candida albicans was above 1000 µM.
In the data set on Candida albicans, `CCCCCCC[C@H]1OO[C@@H](CCC)[C@@H]2O[C@@H]21` displayed an IC50 of 500 µM. In the data set with Erythrocyte, this molecule registered an Activity of 45%.
Molecule `CCCCCCC[C@H]1OOC[C@H]2O[C@@H]12` registered an IC50 in the data set on Candida albicans of 63 µM.
The same measure, in the same setting: to `C[C@@H]1C=C[C@H](COC(=O)CC23CC4CC(CC(C4)C2)C3)OO1` belongs 125 µM.
Molecule `CCCCCC[C@@]12COOC[C@@H]1O2` registered an IC50 with Candida albicans of 500 µM. The molecule also yielded an Activity in the data set with Erythrocyte of 31%.
Consider `C1CCC(C[C@H]2OOC[C@H]3O[C@@H]23)CC1`, for which the IC50 in the data set with Candida albicans is 125 µM.
In turn, `C[C@@H]1C=C[C@H](COC(=O)C23CC4CC(CC(C4)C2)C3)OO1` displayed an IC50 in the data set with Candida albicans of 125 µM.
Regarding `C1C2CC3CC1CC(C[C@H]1OOC[C@H]4O[C@@H]14)(C2)C3`, it took 125 µM to reach half-maximal inhibition in the data set on Candida albicans (IC50).
In the case of `CCCCCCC[C@H]1OOCC=C1CCCCCC`, the IC50 in the data set with Candida albicans stood at 250 µM.
As to `C1CC2OOC1C1OC21` (stereo not drawn), the Activity result is reported as “Active” in the data set with CHO [1], 0% in the data set with Erythrocyte and “Active” with CHO [2]. The IC50 in the data set on Candida albicans is 16 µM.
In turn, `C1=C(C23CC4CC(CC(C4)C2)C3)COOC1` gave an IC50 in the data set on Candida albicans of 63 µM.
The same measure, in the same setting: to `C[C@H]1OO[C@@H](COCc2ccccc2)[C@H]2O[C@H]21` belongs 63 µM; to `C[C@@H]1C=C[C@H](COC(=O)CC23CC4CC(CC(Br)(C4)C2)C3)OO1`, 250 µM.
`C[C@H]1OO[C@@H](CCCO)[C@@H]2O[C@@H]21` yielded an IC50 in the data set on Candida albicans above 1000 µM.
For `C1=C[C@H](C23CC4CC(CC(C4)C2)C3)OO[C@@H]1C12CC3CC(CC(C3)C1)C2`, in the data set on Candida albicans, the IC50 is above 1000 µM.
On to `C1CCC(C[C@H]2OOC[C@@H]3O[C@@H]32)CC1`, for which the midpoint of inhibition in the data set on Candida albicans, the IC50, lay at 125 µM.
The same measure, in the same setting: to `C[C@H]1OO[C@@H](COC(=O)CC23CC4CC(CC(C4)C2)C3)[C@H]2O[C@H]21` belongs 250 µM.
In the data set with Candida albicans, `c1ccc(COC[C@@H]2OO[C@H](COCc3ccccc3)[C@@H]3O[C@@H]32)cc1` returned an IC50 of 63 µM. The Activity in the data set with Erythrocyte is on record as 1%; with CHO [2] it was “Active”.
As for `C1=C[C@@H](COCc2ccccc2)OO[C@H]1COCc1ccccc1`, the Activity result in the data set with CHO [1] is on record as “Active”; in the data set with Erythrocyte, 2%. Besides, in the data set with Candida albicans, half-maximal inhibition (IC50) required 16 µM.
Regarding `C[C@@H]1C=C[C@H](CO)OO1`, in the data set with Candida albicans, the IC50 came out at 16 µM. Besides, the Activity with Erythrocyte was 0%; in the data set with CHO [2], “Active”.
Consider `C1=C[C@@H](CC23CC4CC(CC(C4)C2)C3)OOC1`, for which the IC50 with Candida albicans came out at 125 µM.
As to `c1ccc([C@H]2OO[C@@H](c3ccccc3)[C@@H]3O[C@@H]32)cc1`, inhibition with Candida albicans was half-maximal at 500 µM (IC50).
`CCCCCCC[C@H]1OOC[C@H]2O[C@@]12CCCCCC` yielded an IC50 in the data set on Candida albicans above 1000 µM.
In the data set on Candida albicans, `C[C@@H]1C=C[C@H](CCCO)OO1` showed an IC50 of 250 µM.
Still for that read-out and setting: to `C[C@H]1OO[C@@H](COC(=O)CC23CC4CC(CC(Br)(C4)C2)C3)[C@H]2O[C@H]21` belongs above 1000 µM.
On to `C1C2CC3CC1CC([C@H]1OOC[C@@H]4O[C@@H]41)(C2)C3`, for which, in the data set on Candida albicans, the IC50 is 31 µM. Further, the Activity in the data set on Erythrocyte stood at 41%.
The corresponding values for `CCCCCCC1=CCOOC1` are 250 µM and 61%.
`C[C@H]1OO[C@@H](COCc2ccccc2)[C@@H]2O[C@@H]21` (single isomer, unassigned) had an IC50 with Candida albicans of 125 µM.
The molecule `CCCCCCC[C@@H]1C=CCOO1` showed an IC50 in the data set with Candida albicans of 63 µM. The Activity with Erythrocyte is given as 60%.
The molecule `C1C2CC3CC1CC(C[C@H]1OOC[C@@H]4O[C@@H]41)(C2)C3` gave an IC50 with Candida albicans of 125 µM.
In the data set with Candida albicans, `C[C@@H]1[C@H](O)[C@@H](C)/C=C/C=C/C=C/C=C/C=C/C=C/C=C/[C@H](O[C@@H]2O[C@H](C)[C@@H](O)[C@H](N)[C@@H]2O)C[C@@H]2O[C@](O)(C[C@@H](O)C[C@@H](O)[C@H](O)CC[C@@H](O)C[C@@H](O)CC(=O)O[C@H]1C)C[C@H](O)[C@H]2C(=O)O` [AMPHOTERICIN B] yielded an IC50 below 0.5 µM.
For the molecule `C1=C(C2CCCCC2)COOC1`, in the data set on Candida albicans, the IC50 was 63 µM.
For the molecule `CCCCCCC[C@H]1OOC[C@@H]2O[C@@]21CCCCCC`, the IC50 in the data set on Candida albicans is above 1000 µM.
For the molecule `C[C@H]1OO[C@@H](CO)[C@@H]2O[C@@H]21`, in the data set with Candida albicans, the IC50 was above 1000 µM.
Still for that read-out and setting: to `C1=C[C@@H](CC2CCCCC2)OOC1` belongs 125 µM; to `c1ccc(COC[C@@H]2OO[C@H](COCc3ccccc3)[C@H]3O[C@H]32)cc1`, 250 µM.
Turning to `C1=C[C@H](c2ccccc2)OO[C@@H]1c1ccccc1`, the result with CHO [1] and in the data set on CHO [2] was Active. For the same molecule, in the data set on Candida albicans, 31 µM corresponded to half-maximal inhibition (IC50).
Consider `C[C@H]1OO[C@@H](COC(=O)CC23CC4CC(CC(Br)(C4)C2)C3)[C@@H]2O[C@@H]21`, for which the IC50 in the data set on Candida albicans was above 1000 µM.
In the case of `C1=C[C@@H](C23CC4CC(CC(C4)C2)C3)OOC1`, inhibition with Candida albicans was half-maximal at 31 µM (IC50). Further, in the data set with Erythrocyte, the Activity stood at 100%.
On to `C[C@H]1OO[C@@H](COC(=O)CC23CC4CC(CC(C4)C2)C3)[C@@H]2O[C@@H]21`, for which the IC50 in the data set on Candida albicans was above 1000 µM.
`CCCCCCC[C@H]1OOC[C@@H]2O[C@@H]21` yielded an IC50 in the data set on Candida albicans of 63 µM. The molecule also displayed an Activity in the data set with Erythrocyte of 33%.
As for `C1C2CC3CC1CC([C@@]14COOC[C@@H]1O4)(C2)C3`, in the data set with Candida albicans, the IC50 was found to be 125 µM.
The same measure, in the same setting: to `C[C@H]1OO[C@@H](COC(=O)C23CC4CC(CC(C4)C2)C3)[C@@H]2O[C@@H]21` belongs 250 µM; to `C[C@@H]1C=C[C@H](COCc2ccccc2)OO1`, 250 µM.
